# Reference: US9511058B2, “Methods for using carboxamide, sulfonamide and amine compounds” (Rigel Pharmaceuticals, Inc., priority 2010, dated 2016)
# Molecular target: AMPK
# Assay: AMPK activation, enzyme-linked immunosorbent assay
# Assay type: biochemical
# Settings: compounds of Table 1 (Table 6)
row,Structure (SMILES),EC50 [µM]
1,"N#Cc1ccc(CN2CCC(NC(=O)c3ccc(OC4CCN(c5ccc(C(F)(F)F)cc5)CC4)nc3)CC2)cc1 [1-35, N-(1-(4-cyanobenzyl)piperidin-4-yl)-6-(1-(4-(trifluoromethyl)phenyl)piperidin-4-yloxy)nicotinamide]",0.1 to 0.5
2,"Cc1c(C(=O)NC2CCN(Cc3ccncc3)CC2)oc2cc(OC3CCN(c4ccc(C(F)(F)F)cc4)CC3)ccc12 [1-65, 3-methyl-N-(1-(pyridin-4-ylmethyl)piperidin-4-yl)-6-(1-(4-(trifluoromethyl)phenyl)piperidin-4-yloxy)benzofuran-2-carboxamide]",< 0.1
3,"CN(C(=O)c1cc2cc(OC3CCN(c4ccc(C(F)(F)F)cc4)CC3)ccc2o1)C1CCN(Cc2ccc(C#N)cc2)CC1 [1-107, N-(1-(4-cyanobenzyl)piperidin-4-yl)-N-methyl-5-(1-(4-(trifluoromethyl)phenyl)piperidin-4-yloxy)benzofuran-2-carboxamide]",< 0.1
4,"N#Cc1ccccc1CN1CCC(NC(=O)c2cc3ccc(OC4CCN(c5ccc(C(F)(F)F)cc5)CC4)cc3s2)CC1 [1-146, N-(1-(2-cyanobenzyl)piperidin-4-yl)-6-(1-(4-(trifluoromethyl)phenyl)piperidin-4-yloxy)benzo[b]thiophene-2-carboxamide]",0.1 to 0.5
5,"O=C(NC1CCN(Cc2ccncc2)CC1)c1cc2cc(OC3CCN(c4ccc(C(F)(F)F)cc4)CC3)ccc2o1 [1-76, N-(1-(pyridin-4-ylmethyl)piperidin-4-yl)-5-(1-(4-(trifluoromethyl)phenyl)piperidin-4-yloxy)benzofuran-2-carboxamide]",0.1 to 0.5
6,"N#Cc1cccc(CN2CCC(NS(=O)(=O)c3ccc(OC4CCN(c5ccc(C(F)(F)F)cc5)CC4)nc3)CC2)c1 [1-57, N-(1-(3-cyanobenzyl)piperidin-4-yl)-6-(1-(4-(trifluoromethyl)phenyl)piperidin-4-yloxy)pyridine-3-sulfonamide]",0.5 to 1
7,"O=C(NC1CCN(Cc2ccncc2)CC1)c1cc2cc(OC3CCN(c4ccc(C(F)(F)F)cc4)CC3)ccc2s1 [1-138, N-(1-(pyridin-4-ylmethyl)piperidin-4-yl)-5-(1-(4-(trifluoromethyl)phenyl)piperidin-4-yloxy)benzo[b]thiophene-2-carboxamide]",< 0.1
8,"O=C(NC1CCN(C(=O)c2ccncc2)CC1)c1cc2ccc(OC3CCN(c4ccc(C(F)(F)F)cc4)CC3)cc2o1 [1-112, N-(1-isonicotinoylpiperidin-4-yl)-6-(1-(4-(trifluoromethyl)phenyl)piperidin-4-yloxy)benzofuran-2-carboxamide]",< 0.1
9,"O=C(NC1CCN(Cc2ccncc2)CC1)c1cccc(OC2CCN(c3ccc(C(F)(F)F)cc3)CC2)n1 [1-43, N-(1-(pyridin-4-ylmethyl)piperidin-4-yl)-6-(1-(4-(trifluoromethyl)phenyl)piperidin-4-yloxy)picolinamide]",1 to 5
10,"O=C(N[C@@H]1CCN(S(=O)(=O)c2cccnc2)C1)c1cc2cc(OC3CCN(c4ccc(C(F)(F)F)cc4)CC3)ccc2o1 [1-126, (R)-N-(1-(pyridin-3-ylsulfonyl)pyrrolidin-3-yl)-5-(1-(4-(trifluoromethyl)phenyl)piperidin-4-yloxy)benzofuran-2-carboxamide]",1 to 5
11,"Cc1c(C(=O)NC2CCN(Cc3ccccn3)CC2)oc2cc(OC3CCN(c4ccc(C(F)(F)F)cc4)CC3)ccc12 [1-68, 3-methyl-N-(1-(pyridin-2-ylmethyl)piperidin-4-yl)-6-(1-(4-(trifluoromethyl)phenyl)piperidin-4-yloxy)benzofuran-2-carboxamide]",< 0.1

# Same assay, conditions: compounds of Table 2 (Table 7)
row,Structure (SMILES),EC50 [µM]
1,"N#Cc1ccc(CN2CCC(NC(=O)c3ccc4[nH]c5c(c4c3)CN(S(=O)(=O)c3cccnc3)CC5)CC2)cc1 [2-26, N-(1-(4-cyanobenzyl)piperidin-4-yl)-2-(pyridin-3-ylsulfonyl)-2,3,4,5-tetrahydro-1H-pyrido[4,3-b] indole-8-carboxamide]",10 to 50
2,"O=C(NC1CCN(C(=O)c2ccc(F)cc2)CC1)c1ccc2[nH]c3c(c2c1)CN(c1ccc(F)cc1)CC3 [2-39, N-(1-(4-fluorobenzoyl)piperidin-4-yl)-2-(4-fluorophenyl)-2,3,4,5-tetrahydro-1H-pyrido[4,3-b]indole-8-carboxamide]",10 to 50
3,"NC(=O)c1ccc(CN2CCc3[nH]c4ccc(C(=O)NC5CCN(Cc6ccc(F)cc6)CC5)cc4c3C2)cc1 [2-48, 2-(4-carbamoylbenzyl)-N-(1-(4-fluorobenzyl)piperidin-4-yl)-2,3,4,5-tetrahydro-1H-pyrido [4,3-b]indole-8-carboxamide]",> 100
4,"N#Cc1ccc(CN2CCC(NC(=O)c3ccc4[nH]c5c(c4c3)CN(Cc3ccc(C(F)(F)F)cc3)CC5)CC2)cc1 [2-12, N-(1-(4-cyanobenzyl)piperidin-4-yl)-2-(4-(trifluoromethyl)benzyl)-2,3,4,5-tetrahydro-1H-pyrido [4,3-b]indole-8-carboxamide]",< 0.5
5,"Cn1cnc(CN2CCC(NC(=O)c3ccc4[nH]c5c(c4c3)CN(Cc3ccc(C(F)(F)F)cc3)CC5)CC2)c1 [2-53, N-(1-((1-methyl-1H-imidazol-4-yl)methyl)piperidin-4-yl)-2-(4-(trifluoromethyl)benzyl)-2,3,4,5-tetrahydro-1H-pyrido [4,3-b]indole-8-carboxamide]",10 to 50

# Same assay, conditions: compounds of Table 3 (Table 8)
row,Structure (SMILES),EC50 [µM]
1,"N#Cc1ccc(CN2CCC(NC(=O)c3cn4ccc(OC5CCN(c6ccc(C(F)(F)F)cc6)CC5)cc4n3)CC2)cc1 [3-18, N-(1-(4-cyanobenzyl)piperidin-4-yl)-7-(1-(4-(trifluoromethyl)phenyl)piperidin-4-yloxy)imidazo[1,2-a]pyridine-2-carboxamide]",< 0.1
2,"N#Cc1ccc(CN2CCc3ccc(C(=O)NC4CCN(Cc5cccnc5)CC4)cc3C2)cc1 [3-38, 2-(4-cyanobenzyl)-N-(1-(pyridin-3-ylmethyl)piperidin-4-yl)-1,2,3,4-tetrahydroisoquinoline-7-carboxamide]",< 0.1
3,"O=C(c1ccncc1)N1CC2CC1CN2C(=O)c1nc2ccc(OC3CCN(c4ccc(C(F)(F)F)cc4)CC3)cc2o1 (stereo not drawn) [3-11, (5-isonicotinoyl-2,5-diazabicyclo[2.2.1]heptan-2-yl)(6-(1-(4-(trifluoromethyl)phenyl)piperidin-4-yloxy)benzo[d]oxazol-2-yl)methanone]",0.1 to 1

# Same assay, conditions: compounds of Table 5 (Table 10)
row,Structure (SMILES),EC50 [µM]
1,"Cc1ccc(CN2CCC(Oc3ccc(C(=O)NCCCN4CCOCC4)cc3)CC2)cc1 [5-104, 4-(1-(4-methylbenzyl)piperidin-4-yloxy)-N-(3-morpholinopropyl)benzamide]",10 to 20
2,"CC(C)(C)OC(=O)N1CCC(Oc2ccc(C(=O)NC3CCN(Cc4ccccc4)CC3)cc2Cl)CC1 [5-90, tert-butyl 4-(4-(1-benzylpiperidin-4-ylcarbamoyl)-2-chlorophenoxy)piperidine-1-carboxylate]",1 to 10
3,"O=C(NC1CCN(C(=O)c2ccncc2)CC1)c1ccc(OC2CCN(c3ccc(C(F)(F)F)cc3)CC2)c(F)c1 [5-40, 3-fluoro-N-(1-isonicotinoylpiperidin-4-yl)-4-(1-(4-(trifluoromethyl)phenyl)piperidin-4-yloxy)benzamide]",< 1
4,"O=C(NC1CCN(Cc2ccccc2)CC1)c1cccc(OC2CCN(c3ccc(C(F)(F)F)cc3)CC2)c1 [5-46, N-(1-benzylpiperidin-4-yl)-3-(1-(4-(trifluoromethyl)phenyl)piperidin-4-yloxy)benzamide]",< 1
5,"O=C(NC1CCN(Cc2ccccc2)CC1)c1ccc(OC2CCN(Cc3ccccc3)CC2)c(Cl)c1 [5-14, N-(1-benzylpiperidin-4-yl)-4-(1-benzylpiperidin-4-yloxy)-3-chlorobenzamide]",< 1
